Test results as given in patent US20050153361A1, “Therapeutic and diagnostic applications of protein disulphide isomerases” (priority 2003, published 2005).
Entries after “also recorded” stand apart in the source; their conditions may differ.

Assays:
[1] = tested on: human dermal microvascular endothelial cells (HDMEC); experiment: FACS analysis of apoptosis (Annexin V-FITC / propidium iodide) after siRNA transfection; assay type: cell-based; settings: for cell population being apoptotic: 10 nM siRNA
Method: (§1) Transfection of microvascular endothelial cells with siRNA: EndoPDI specific (5′-[…]-3′) and PDI specific (5′-[…]-3′) siRNA oligos were synthesized using the SilencerTM siRNA Construction kit (Ambion, Huntingdon, UK) following manufacturer's instructions. HDMEC (5×10^5 cells) were plated onto 0.2% gelatin coated 10 cm petri dishes and incubated for 24 h. Cells were then transfected with 10 nM EndoPDI and/or PDI siRNA using oligofectamine reagent (Invitrogen) according to the manufacturer's instructions. The cells were then incubated for 24 h prior to hypoxia for 16 h (0.1% O2, 5% CO2 and 94.9% N2) or continuation of normoxic exposure for 16 h before performing FACS analysis as described.
FACS Analysis: To distinguish apoptotic from necrotic cells, double staining for exposed phosphatidylserine and propidium iodide (PI) exclusion was performed as follows: Cells were harvested, washed twice with PBS and resuspended in binding buffer (10 mM HEPES/NaOH, pH 7.4, 140 mM NaCl, 2.5 mM CaC12). Five μl Annexin V-FITC antibody (Pharmingen, San Diego, USA) and 10 μl PI (50 μg/ml) were added to the cells. After incubation for 15 min in the dark at room temperature, the cells were analysed by a FACScan. Controls of unstained cells, cells stained with Annexin V-FITC only and cells stained with PI only were used to set up compensation and quadrants.

[2] = tested on: adrenomedullin secretion by HDMEC; experiment: Adrenomedullin secretion by HDMEC measured by radioimmunoassay after siRNA treatment; assay type: cell-based, human; settings: under hypoxia
Method: as §1
Measurement of adrenomedullin by Radioimmunoassay: The secretion of adrenomedullin by endothelial cells was measured using an adrenomedullin radioimmunoassay (Peninsula Laboratories Europe, Ltd, Merseyside, England) following manufacturer's instructions. Briefly, 50,000 cells were treated with RNAi oligos as before, the medium collected and used in the radioimmunoassay.

[3] = tested on: endothelin-1 secretion by HDMEC; experiment: Endothelin-1 secretion by HDMEC measured by ELISA after siRNA treatment; assay type: cell-based, human; settings: under hypoxia
Method: as §1
Measurement of endothelin-1 secretion by ELISA: The secretion of endothelin-1 by endothelial cells was measured using a human endothelin-1 ELISA (R&D Systems, Abindgdon, UK) following manufacturer's instructions. Briefly, 50,000 cells were treated with RNAi oligos as before, the medium collected and diluted 1/25 for use in the ELISA.

EndoPDI protein = experiment: Western blotting of EndoPDI protein after siRNA transfection; assay type: cell-based, human; settings: HDMEC, 10 nM siRNA
Description: Production of polyclonal antibodies to EndoPDI and Western blotting; The peptide of sequence ADGEDGQDPHSKC was synthesized by the Protein and Peptide Chemistry Department of Cancer Research UK, using standard techniques. This sequence corresponds to amino acids 52 to 63 of the human EndoPDI protein sequence with an additional cysteine residue added to the C-terminus to enable coupling to a carrier protein. The peptide was coupled to Imject® Maleimide Activated mcKLH (Pierce, Rockford, USA) following the manufacturer's instructions and diluted with Freunds adjuvant before injection into rabbits. A standard immunisation protocol was followed with 200 μg immunogen used for the first injection and 100 μg immunogen for subsequent boosts. The test bleeds were screened against pre-bleeds by ELISA to identify the presence of antibodies to EndoPDI in the rabbit serum.
as §1

[4] = tested on: CD105 cell surface expression on HDMEC; experiment: CD105 cell surface expression on HDMEC by FACS after siRNA treatment; assay type: cell-based, human; settings: under hypoxia
Method: as §1
The cell surface expression of CD105 was quantified by incubating 10^5 cells per tube with 50 μl (10 μl/ml in PBS) of monoclonal antibody to CD105 on ice for 1 h and washed twice with cold PBS. After incubation with FITC-labelled rabbit anti-mouse F(ab)2 (1/40 DAKO) for 30 min on ice, the cells were washed and resuspended in 0.3 ml of 2% buffered formalin and analyzed on a FACScan.

EndoPDI mRNA = experiment: RNase protection analysis of EndoPDI mRNA after siRNA transfection; assay type: cell-based, human; settings: HDMEC, 10 nM siRNA
Method: RNase Protection Assay. Total RNA was extracted from cells in culture using TRI reagent (Sigma, Poole, Dorset, UK). RNase protection assays were performed in duplicate on 10-30 μg of total RNA as described (16). […] The protected fragment size for EndoPDI was 300 nucleotides. In each assay, a positive and negative (tRNA only) control and undigested riboprobes were analysed. Intensity of signal, quantified on a PhosphorImager (Molecular Dynamics, Chesham, Buckinghamshire, United Kingdom) was calculated as the ratio of the signal of interest to U6 mRNA to correct for variations in loading.
as §1

[5] = hypoxia 16 h (0.1% O2), listed as siRNA specific to EndoPDI
[6] = normoxia, listed as siRNA specific to EndoPDI

Row | Substance | necrotic cell population ([1]; HDMEC, hypoxia) | apoptotic population compared with controls ([1]; HDMEC, hypoxia (0.1% O2, 16 h)) | cell population being apoptotic ([1]; HDMEC, hypoxia (0.1% O2, 16 h)) | cell population being apoptotic ([1]; HDMEC, normoxia) | HDMEC survival ([1]; normoxia) | adrenomedullin secretion [2] | endothelin-1 secretion [3] | EndoPDI protein expression (EndoPDI protein; [5]) | EndoPDI protein expression (EndoPDI protein; normoxia) | EndoPDI protein expression (EndoPDI protein; [6]) | CD105 cell surface expression [4] | share of the cell population with marked reduction in CD105 expression ([4]; two peaks apparent) | EndoPDI mRNA expression (EndoPDI mRNA; [5]) | EndoPDI mRNA expression (EndoPDI mRNA; normoxia) | EndoPDI mRNA expression (EndoPDI mRNA; [6]) | apoptotic population compared with controls ([1]; HDMEC, normoxia)
1 | EndoPDI specific siRNA: EndoPDI specific siRNA oligo, 5′-GAAGCTGTGAAGTACCAGGTT-3′, synthesized with the Silencer siRNA Construction kit (listed as DNA, chemistry not given here) | significant increase | significant increase | 12% | 4.5% | no effect | significantly reduced | even greater reduction | loss of EndoPDI expression; also recorded: complete loss | completely blocked | complete loss | marked reduction | 50% | loss of EndoPDI expression; also recorded: complete loss | completely blocked | complete loss | –
2 | PDI specific siRNA: PDI specific siRNA oligo, 5′-GACCTCCCCTTCAAAGTTGTT-3′ (listed as DNA, chemistry not given here) [reference compound] | – | significant increase | 48% | 55% | – | little effect | significant decrease | – | – | – | little effect | – | – | – | – | significant increase
